Measurements from US6693100B1, “Pharmaceutical compositions for treating psoriasis” (priority 1999, dated 2004).

How the values were obtained:
psoriasis [1] = conditions: cited from earlier work
refractory psoriasis [2] = assay: Clinical study of efficacy of dexrazoxane in patients with refractory psoriasis, Psoriasis Area and Severity Index (Example 4); format: in vivo, human
Experimental: (§1) The efficacy and tolerability of dexrazoxane in patients with refractory psoriasis was assessed in a clinical study.
(§2) After screening, eligible patients received 500 mg of Cardioxane® by intravenous infusion on each of two consecutive days. They were reviewed 7 and 14 days after the first day of treatment. The patients received the second cycle of treatment, which consisted of either 500 mg Cardioxane® by intravenous infusion, on each of two consecutive days (days 15 and 16, in this case), if a complete response had occurred, or 1000 mg Cardioxane® by intravenous infusion, on each of two consecutive days (days 15 and 16, in this case), if an incomplete response had occurred.
(§3) A third cycle of treatment was given after the same interval (days 29 and 30, in this case).
The primary efficacy parameter was the percentage reduction in skin area and severity affected by psoriasis, as determined by the standardised assessment of the Psoriasis Area and Severity Index (PASI).
Seven patients have been enrolled in the study and all patients have completed a follow-up period of two weeks. At the beginning of the treatment, the PASI-scores ranged between 23.1 and 44.1, with a mean score of 31.9. […] At the end of the third treatment cycle, the PASI-scores ranged between 3.4 and 29.7, with a mean score of 11.4.

[3] = human, in vivo
Experimental: as §1, §2, §3
This neutropenia disappeared after another week, and the counts were normal from then on. All other patients had normal white blood cell counts. The assessment of toxicity was according to the WHO criteria: grade 0 (non-toxic, a count of more than 4×10E9 leukocytes per liter), grade 1 (mild) to grade 4 (most severe).

[4] = pH of reconstituted and diluted Cardioxane solution for infusion; format: physicochemical
Experimental: Cardioxane® is available in 36 ml brown glass vials. Each vial contains 500 mg lyophilised active substance, the hydrochloric acid salt of dexrazoxane. For reconstitution the contents of each vial is dissolved in 25 ml sterile water for injection. The contents will dissolve within a few minutes under gentle agitation. The pH of the resulting solution is approx. pH 1.6.
For infusion the solution needs to be further diluted. Preferred are sodium lactate UP (0.16M) or Ringer-Lactate BP for infusion. Both solutions give an infusion fluid with an acceptable pH.

psoriasis [5] = assay: Clinical trial case reports: Cardioxane intravenous drip infusion in individual psoriasis patients (Examples 1-3); format: in vivo, human
Text: The disease started after mental stress (loss of near person) with a rash on the hairy part of the head. From the very onset of the disease the patient received intensive treatment with vitamins B12, B6, B2, and calcium. They had artificial hyperthermia with pyrogenal injections, methotrexate, various ointments (e.g. salicylic ointment) under a dermatologist's observation at a specialised clinic. In spite of the treatment the psoriatic rash was spreading over the trunk, upper and lower extremities and it was accompanied by a marked general itch. The patient had practically no remissions. Concurrent diseases were grade II hypertension and chronic cholecystopancreatitis.
At the first examination the patient complained about itching all over the body (resulting in insomnia) and pain in the large joints (mainly knees). The skin on the back, buttocks, chest and arms was covered with a erythematous papular and pustular rash with a white coating (desquamation). A similar though less intense rash was seen on the legs. The patient's general status, the haematological and biochemical profiles were within normal.
On the first and the second day of the treatment cycle the patient received the first doses of Cardioxane® (dexrazoxane.HCl) at 500 mg each day by intravenous drip infusion. […] The itch practically disappeared after the next dose of Cardioxane® therapy at 1000 mg on day 16. […] The patient slept well for the first time in a long disease period. The effect was still preserved at the examination on day 29 and day 30 when the patient was given the last two injections of Cardioxane® at 1500 mg each.
This patient had suffered from generalised psoriasis for 25 years. The rash first appeared on the head and the right upper limb to spread over the trunk and upper limbs later. The patient had received therapies similar to the patient described in Example 1. In addition they received UV therapy, peloids, sulfurated hydrogen baths, but without lasting effect. The patient had no concurrent illness except asthenia, sinus arrhythmia and left ventricular hypertrophy. The skin on the back, lumbar region and shoulders was covered with merged erythematous papular, bullar and desquamating lesions. The rash on the lateral chest walls and on the lower limbs was mainly erythematous and less marked. The skin lesions covered about 50% of the body surface.
The patient was given 6 intravenous drip injections with Cardioxane® according to the following schedule:
On day 1 and day 2 each 500 mg Cardioxane®,
on day 15 and day 16 each 1000 mg Cardioxane®,
and on day 29 and day 30 each 1500 mg Cardioxane®.
The psoriatic rash appeared on the hairy part of the head and neck to spread further over the body. The patient received insolation with but a temporary effect. The patient had had 4 hospitalisations to receive therapy with vitamins, calcium, and various ointments.
At the first examination on day 1 the patient presented with continuous erythematous papular psoriatic rash with desquamation on the front abdominal wall (below the submammal fold), the inguioileac, the lumbosacral, the gluteal regions and the lower limbs, severe itch, and scraping tubular breathing (asthmatic bronchitis). Of note was also a marked increase in the eosinophile count.
The patient received 6 intravenous drip injections of Cardioxane® according to the protocol given in Example 2. […] The lower half of the abdomen as well as the upper gluteal quadrants were practically free of rash.

refractory psoriasis [6] = assay: Separate longer study of three patients with refractory psoriasis; format: in vivo, human
Text: This patient, who previously suffered distressing refractory psoriasis, can be treated with conventional emollients. Dexrazoxane therefore has the potential to provide remarkable long term relief from refractory psoriasis and a low level of side effects.

[7] = British Journal of Dermatology (1980) 102, 307
[8] = at 11 weeks after the start of the therapy
[9] = Example 3 patient, examination on day 30
[10] = patients of the clinical trial (general statement)

With CC(CN1CC(=O)NC(=O)C1)N1CC(=O)NC(=O)C1 (racemic) [razoxane, 1,2-bis(3,5-dioxopiperazin-1-yl)-propane] as the compound, how does the efficacy in psoriasis (psoriasis [1]; [7]) read?
The efficacy in psoriasis was “relatively good efficacy”.

And the “tolerability in psoriasis patients” value (psoriasis [1]; [7])?
Its value is “good tolerability”.

And the “most frequently seen side effect” value (psoriasis [1]; Horton and Wells, British Journal of Dermatology (1983) 109, 669-673)?
Its value is “neutropenia”.

Which results are given for CC(CN1CC(=O)NC(=O)C1)N1CC(=O)NC(=O)C1 (stereo not drawn) [Cardioxane]?
maximum reduction in PASI (refractory psoriasis [2]; [8]): 88%; mean reduction in PASI (refractory psoriasis [2]; [8]): 65%; relief of symptoms associated with psoriatic arthritis (refractory psoriasis [2]; compared to treatment with cyclosporine A used previously in the clinic): better and faster relief; remission (refractory psoriasis [2]; one month after the last injection): most of the patients are still in remission; PASI score (refractory psoriasis [2]; patient 1/HH, visit v1 (start of treatment)): 23.1; PASI score (refractory psoriasis [2]; patient 1/HH, visit v4): 11.3; PASI score (refractory psoriasis [2]; patient 1/HH, visit v7): 7.7; PASI score (refractory psoriasis [2]; patient 1/HH, visit v9): 6.5; PASI score (refractory psoriasis [2]; patient 1/HH, visit v10): 6.5; PASI score (refractory psoriasis [2]; patient 1/HH, visit v11): 5.6; PASI score (refractory psoriasis [2]; patient 2/MR, visit v1 (start of treatment)): 43.6; PASI score (refractory psoriasis [2]; patient 2/MR, visit v4): 36.3; PASI score (refractory psoriasis [2]; patient 2/MR, visit v7): 23.1; PASI score (refractory psoriasis [2]; patient 2/MR, visit v9): 15.6; PASI score (refractory psoriasis [2]; patient 2/MR, visit v10): 12.3; PASI score (refractory psoriasis [2]; patient 2/MR, visit v11): 14.0; PASI score (refractory psoriasis [2]; patient 3/MZ, visit v1 (start of treatment)): 29.8; PASI score (refractory psoriasis [2]; patient 3/MZ, visit v4): 18.4; PASI score (refractory psoriasis [2]; patient 3/MZ, visit v7): 11.6; PASI score (refractory psoriasis [2]; patient 3/MZ, visit v9): 9.7; PASI score (refractory psoriasis [2]; patient 3/MZ, visit v10): 7.1; PASI score (refractory psoriasis [2]; patient 3/MZ, visit v11): 6.5; PASI score (refractory psoriasis [2]; patient 4/PH, visit v1 (start of treatment)): 27.0; PASI score (refractory psoriasis [2]; patient 4/PH, visit v4): 18.6; PASI score (refractory psoriasis [2]; patient 4/PH, visit v7): 13.5; PASI score (refractory psoriasis [2]; patient 4/PH, visit v9): 10.8; PASI score (refractory psoriasis [2]; patient 4/PH, visit v10): 12.0; PASI score (refractory psoriasis [2]; patient 4/PH, visit v11): 5.2; PASI score (refractory psoriasis [2]; patient 5/PZ, visit v1 (start of treatment)): 29.1; PASI score (refractory psoriasis [2]; patient 5/PZ, visit v4): 16.9; PASI score (refractory psoriasis [2]; patient 5/PZ, visit v7): 9.9; PASI score (refractory psoriasis [2]; patient 5/PZ, visit v9): 9.3; PASI score (refractory psoriasis [2]; patient 5/PZ, visit v10): 7.8; PASI score (refractory psoriasis [2]; patient 5/PZ, visit v11): 3.4; PASI score (refractory psoriasis [2]; patient 6/FJ, visit v1 (start of treatment)): 44.1; PASI score (refractory psoriasis [2]; patient 6/FJ, visit v4): 24.8; PASI score (refractory psoriasis [2]; patient 6/FJ, visit v7): 20.3; PASI score (refractory psoriasis [2]; patient 6/FJ, visit v9): 15.6; PASI score (refractory psoriasis [2]; patient 6/FJ, visit v10): 15.6; PASI score (refractory psoriasis [2]; patient 6/FJ, visit v11): 15.3; PASI score (refractory psoriasis [2]; patient 7/DJ, visit v1 (start of treatment)): 26.6; PASI score (refractory psoriasis [2]; patient 7/DJ, visit v4): 23.6; PASI score (refractory psoriasis [2]; patient 7/DJ, visit v7): 23.0; PASI score (refractory psoriasis [2]; patient 7/DJ, visit v9): 21.8; PASI score (refractory psoriasis [2]; patient 7/DJ, visit v10): 28.5; PASI score (refractory psoriasis [2]; patient 7/DJ, visit v11): 29.7; mean PASI score at the end of the third treatment cycle (refractory psoriasis [2]; seven patients, end of third treatment cycle): 11.4; response to the treatment (refractory psoriasis [2]; seven patients, one patient absolutely resistant): Most of the patients did respond to the treatment; leukocyte count in the patient with leukopenia [3]: approximately 3×10E9 cells per liter; leukopenia incidence [3]: only one was diagnosed with mild, reversible leukopenia; serious adverse events [3]: no serious adverse events were reported; toxicity grade according to World Health Organisation criteria [3]: grade I; vomiting, nausea, or diarrhoea [3]: No cases of vomiting, nausea, or diarrhoea were recorded; pH of the resulting solution ([4]; 500 mg vial dissolved in 25 ml sterile water for injection): ~1.6; pH ([4]; 4 reconstituted vials diluted with 100 ml Ringer-Lactate BP, total 200 ml): 2.14; pH ([4]; 4 reconstituted vials diluted with 100 ml Sodium lactate UP (0.16 M), total 200 ml): 3.80; pH ([4]; 4 reconstituted vials diluted with 300 ml Ringer-Lactate BP, total 400 ml): 2.85; pH ([4]; 4 reconstituted vials diluted with 300 ml Sodium lactate UP (0.16 M), total 400 ml): 4.47; pH ([4]; 4 reconstituted vials diluted with 400 ml Ringer-Lactate BP, total 500 ml): 3.19; pH ([4]; 4 reconstituted vials diluted with 500 ml Ringer-Lactate BP, total 600 ml): 3.45; pH ([4]; 4 reconstituted vials diluted with 500 ml Sodium lactate UP (0.16 M), total 600 ml): 4.66; arthralgia (psoriasis [5]; Example 1 patient, after 1000 mg dose on day 16): complete disappearance of anthralgia; adverse events (psoriasis [5]; Example 1 patient, after any of the injections (500, 1000, 1500 mg)): no adverse events; itch (psoriasis [5]; Example 1 patient, 500 mg i.v. on days 1 and 2): amelioration of itch several hours after the first; side effects (psoriasis [5]; Example 2 patient, 6 i.v. drip injections 500-1500 mg): no side effects; erythema (psoriasis [5]; Example 2 patient, examination on day 15 and day 29): mild amelioration of erythema on the back; skin itch (psoriasis [5]; Example 3 patient, at 2 or 3 days after the first injection): complete disappearance of skin itch; adverse events (psoriasis [5]; Example 3 patient, examination on day 15): no adverse events; adverse events (psoriasis [5]; [9]): No adverse events were reported; complete regression of the rash (psoriasis [5]; [9]): about 80%

With CC(CN1CC(=O)NC(=O)C1)N1CC(=O)NC(=O)C1 (stereo not drawn) [dexrazoxane, d-isomer of 1,2-bis(3,5-dioxopiperazin-1-yl)-propane] as the compound, how does the serious side effects [3] read?
The serious side effects was “No serious side effects have been reported”.

What about the “duration of relief from refractory psoriasis” value (refractory psoriasis [6]; some patients (summary statement)) of the same compound?
Its value is “up to at least one year”.

And the “long term freedom from lesions and symptoms” value (refractory psoriasis [6]; three patients with refractory psoriasis, after one year)?
The value was “one patient is still relatively free of lesions and symptoms after one year”.

And the itch (psoriasis [5]; [10])?
The itch was “diminished several hours after the first administration”.

And the “regression of the skin lesions” value (psoriasis [5]; [10])?
Its value is 25-30%.
